In the supplement of paper PMC10307832:

How the values were obtained:
Experiment in all cases: relative viability (nuclei count vs DMSO), 5 days (fraction); higher = more cells survive
[1] = compound: O[C@@H](COc1cccc2ncccc12)CN1CCN([C@@H]2c3ccccc3[C@@H]3[C@H](c4ccccc42)C3(F)F)CC1 [Zosuquidar] + C[C@@H](Oc1cc(-c2cnn(C3CCNCC3)c2)cnc1N)c1c(Cl)ccc(F)c1Cl [Crizotinib] (partner 1 µM)
In short: (§1)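 Five library-drug doses in √10 steps were combined with a fixed anchor-drug dose, or a single drug was given alone, by pin tool to lung cancer cell lines in 1536-well plates the day after seeding. Nuclei were stained and counted after 5 days. Relative viability is the nuclei count in treated wells over that in vehicle wells, taken as the median of duplicate plates.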

[2] = compound: COc1cc2nccc(Oc3ccc(NC(=O)C4(C(=O)Nc5ccc(F)cc5)CC4)cc3)c2cc1OC [Cabozantinib] + CC(C)C[C@H](NC(=O)[C@H](Cc1ccccc1)NC(=O)c1cnccn1)B(O)O [Bortezomib] (partner 0.002 µM)
In short: as §1

[3] = compound: O[C@@H](COc1cccc2ncccc12)CN1CCN([C@@H]2c3ccccc3[C@@H]3[C@H](c4ccccc42)C3(F)F)CC1 [Zosuquidar] + COc1cc2c(Oc3ccc(NC(=O)C4(C(=O)Nc5ccc(F)cc5)CC4)cc3F)ccnc2cc1OCCCN1CCOCC1 [Foretinib] (partner 0.25 µM)
In short: as §1

[4] = compound: O[C@@H](COc1cccc2ncccc12)CN1CCN([C@@H]2c3ccccc3[C@@H]3[C@H](c4ccccc42)C3(F)F)CC1 [Zosuquidar] + CS(=O)(=O)CCNCc1ccc(-c2ccc3ncnc(Nc4ccc(OCc5cccc(F)c5)c(Cl)c4)c3c2)o1 [Lapatinib] (partner 2 µM)
In short: as §1

| Cell Line | relative viability ([1]; first compound 0.01 µM) | relative viability ([1]; first compound 0.03162 µM) | relative viability ([1]; first compound 0.1 µM) | relative viability ([1]; first compound 0.3162 µM) | relative viability ([1]; first compound 1 µM) | relative viability ([2]; first compound 0.02 µM) | relative viability ([2]; first compound 0.06325 µM) | relative viability ([2]; first compound 0.2 µM) | relative viability ([2]; first compound 0.6325 µM) | relative viability ([2]; first compound 2 µM) | relative viability ([3]; first compound 0.01 µM) | relative viability ([3]; first compound 0.03162 µM) | relative viability ([3]; first compound 0.1 µM) | relative viability ([3]; first compound 0.3162 µM) | relative viability ([3]; first compound 1 µM) | relative viability ([4]; first compound 0.01 µM) | relative viability ([4]; first compound 0.03162 µM) | relative viability ([4]; first compound 0.1 µM) | relative viability ([4]; first compound 0.3162 µM) | relative viability ([4]; first compound 1 µM) |
| --- | --- | --- | --- | --- | --- | --- | --- | --- | --- | --- | --- | --- | --- | --- | --- | --- | --- | --- | --- | --- |
| NCI-H2228 | 0.524 | 0.598 | 0.44 | 0.338 | 0.607 | 1.04 | 1.47 | 1.33 | 1.11 | 0.926 | 0.933 | 0.438 | 0.995 | 0.768 | 0.714 | 1.2 | 0.937 | 0.956 | 1.06 | 1.21 |
| NCI-H1755 | 0.859 | 0.924 | 0.839 | 0.881 | 0.876 | 0.962 | 1 | 0.903 | 0.895 | 0.928 | 0.908 | 0.894 | 0.841 | 0.959 | 0.932 | 1 | 0.946 | 0.951 | 1.04 | 1.08 |
| A-427 | 0.851 | 0.911 | 0.784 | 0.957 | 0.858 | 1.03 | 0.969 | 1.05 | 0.936 | 0.988 | 1.1 | 0.983 | 0.96 | 1.18 | 1.06 | 1.07 | 1.02 | 0.842 | 1.07 | 1.01 |
| PC-3 [JPC-3] | 0.861 | 0.981 | 0.878 | 0.964 | 0.946 | 0.802 | 0.992 | – | 0.863 | 0.867 | 1.11 | 1.02 | 0.984 | 1.09 | 1.1 | 0.449 | 0.429 | 0.401 | 0.433 | 0.447 |
| LOU-NH91 | 0.733 | 0.738 | 0.691 | 0.736 | 0.736 | 0.484 | 0.55 | 0.457 | 0.508 | 0.551 | 0.882 | 0.857 | – | 0.936 | 0.91 | 0.717 | 0.851 | 0.701 | 0.942 | 0.751 |
| BEN | 1.01 | 0.923 | 0.827 | 0.821 | 0.77 | 0.679 | 1.08 | 0.902 | 0.639 | 0.795 | 0.724 | 0.55 | 0.592 | 0.61 | 0.524 | 0.79 | 0.718 | 0.594 | 0.825 | 0.745 |
| NCI-H2085 | 0.822 | 0.823 | 0.899 | 0.792 | 0.874 | 1.22 | 1.14 | 1.08 | 1.01 | 1.03 | 0.855 | 1.02 | 0.837 | 1.01 | 0.981 | 0.796 | 0.754 | 0.475 | 0.826 | 0.778 |
| LC-2-ad | 0.443 | 0.508 | 0.451 | 0.449 | 0.46 | 1.06 | 1.17 | 0.863 | 0.865 | 0.821 | 0.975 | 0.933 | 0.862 | 1.03 | 0.931 | 0.994 | 1.05 | 0.993 | 0.989 | 0.958 |
| ABC-1 | 1.19 | 1.17 | 1.41 | 1.31 | 1.08 | 0.263 | 0.263 | 0.294 | 0.351 | 0.279 | 0.926 | 1.03 | 1.17 | 1.32 | 0.95 | 1.17 | 1.14 | 1.24 | 1.19 | 1.05 |
| NCI-H727 | 0.905 | 0.925 | 0.732 | 0.798 | 0.925 | 0.704 | 0.901 | 0.718 | 0.819 | 0.947 | 0.774 | 0.79 | 0.774 | 0.855 | 0.908 | 0.846 | 0.795 | 0.748 | 1.02 | 0.94 |
| EPLC-272H | 0.899 | 0.901 | 0.97 | 0.813 | 0.751 | 0.98 | 0.937 | 0.756 | 1.04 | 1.04 | 0.778 | 0.683 | 0.57 | 0.817 | 0.671 | 0.916 | 0.97 | 0.876 | 1.01 | 1 |
| NCI-H1563 | 0.734 | 0.904 | 0.84 | 0.828 | 0.838 | 0.92 | 0.875 | 0.904 | 0.824 | 1.08 | 1.04 | 0.9 | 0.967 | 1.1 | 0.932 | 0.99 | 0.81 | 0.813 | 1.04 | 0.855 |
| EKVX | 0.951 | 1.01 | 0.883 | 0.995 | 0.705 | 0.996 | 1.19 | 0.942 | 1.1 | 1 | 0.692 | 0.734 | 0.589 | 0.954 | 0.748 | 0.227 | 0.254 | 0.106 | 0.34 | 0.214 |
| NCI-H1666 | 1.02 | 0.975 | 1.18 | 0.986 | 1.08 | 0.87 | 0.934 | 0.879 | 1.02 | 0.875 | 0.946 | 1.01 | 0.976 | 1.02 | 0.942 | 0.534 | 0.713 | 0.875 | 0.754 | 0.579 |
| HCC-15 | 0.821 | 0.865 | 0.71 | 0.856 | 0.874 | 0.974 | 1.1 | 0.995 | 1.02 | 1.09 | 1.08 | 1.08 | 0.864 | 1.04 | 1.09 | 0.827 | 0.861 | 0.764 | 0.881 | 0.976 |
| NCI-H2405 | 0.889 | 0.82 | 0.757 | 0.819 | 0.825 | 0.947 | 1.06 | 0.989 | 0.871 | 1.04 | 1.05 | 1.06 | 0.946 | 1.05 | 1.04 | 1.17 | 0.971 | 1.15 | 1.24 | 1.11 |
